Test results published in patent US10842749B2, “Compositions and methods of treating therapy resistant cancer and uses thereof” (priority 2012, dated 2020).

Tests used:
4T1 lung metastasis [1] = experiment: 4T1 lung metastasis model, pilot study (two treatments); assay type: in vivo, BALB/c mice; details: 6 mg/kg on day of surgery and 10 days later
Source text: All mice were sacrificed three weeks after the first treatment, and lung tissues were examined for tumor metastasis. […] The arrows indicate tumor nodules in the lung (FIG. 5F-2).
Thus the 4T1 syngeneic tumor mice represent a second Triple Negative Breast Cancer (TNBC) tumor model in this study. When inoculated into the mammary gland fat pad of BALB/c mice, 4T1 tumor cells formed rapidly growing primary tumors. If left untreated, all of the mice would eventually develop lung metastasis from primary tumors. In a pilot study, surgical removal of primary tumors (about 400 mm^3 in size) was performed, and then PBS, Dox, pDox, or Porous silicon/pDox was administered once immediately after surgery and again 10 days post-surgery.

[2] = Heart H&E staining and body weight in treated tumor mice
Protocol: FIGS. 4A-4C show H&E staining of heart tissues in mice treated with 6 mg/kg free Dox, Doxil, or porous silicon/pDox for 6 weeks.
(§1) Applicants selected the murine model of MDA-MB-231 human breast cancer lung metastasis, widely used to study mechanism of pathology and for drug development^37-39, to evaluate therapeutic efficacy of porous silicon/pDox. […] Applicants treated the tumor-bearing mice with free pDox, porous silicon/pDox, and the clinically available drugs doxorubicin and Doxil, beginning one week after tumor inoculation and lasting for 6 weeks. Drugs were dosed biweekly at 6 mg/kg to mice in all treatment groups (10 mice per group) except free Dox.

[3] = test system: MDA-MB-231 human breast cancer lung metastasis; experiment: Murine model of MDA-MB-231 human breast cancer lung metastasis; assay type: in vivo, nude mice; details: Dox 3 mg/kg weekly, 6 weeks
Protocol: as §1

4T1 lung metastasis [4] = experiment: 4T1 lung metastasis model, follow-up study (weekly x 4 after surgery)
Protocol: 4T1 tumor cells were inoculated in the fourth mammary gland fat pad of female BALB/c mice. The primary tumors were surgically removed when they reached 250-300 mm3, and mice (n=10 mice/group) were treated weekly with 6 mg/kg Dox, Doxil, pDox, or Porous silicon/pDox for four consecutive weeks. Tumor growth was monitored by tracking bioluminescent intensity with the Xenogene IVIS-200 imaging system.
To generate the mouse 4T1 lung metastasis model, BALB/c mice were inoculated with 4T1 cells (5×10^4 cells/mouse) into the mammary gland fat pad. […] In the follow-up study, 4T1 cells that were engineered to express luciferase and GFP, and were inoculated into the mammary gland fat pads of female BALB/c mice. The primary tumors were surgically removed once they reached 250-300 mm^3. Mice were treated with 6 mg/kg of the therapeutic agents weekly for 4 weeks, and subsequently maintained to assess survival benefit from treatments.
To evaluate drug dosing requirements and sustainability after administration, Applicants applied a different drug regimen to BALB/c mice bearing 4T1 tumors. Applicants performed complete surgical removal of the primary tumors once they reached 250-300 mm3, and confirmed that the extraction was thorough by the lack of bioluminescence from the luciferase- and GFP-bearing mammary gland fat pads (FIG. 5A). […]

MDA-MB-231/MDR cells = experiment: Cell viability of MDR1-transfected MDA-MB-231/MDR cells; assay type: cell-based, human; details: cell viability 72 hours after treatment
Protocol: (§2) FIGS. 2A-2H show vesicular transport of pDox in tumor cells and effective killing of tumor cells carrying an overexpressed multidrug resistance gene mediated by pDox. […] The presence of doxorubicin (red) in subcellular organelle was visualized by fluorescence microscopy. Nuclei were stained blue with DAPI and late endosomes/lysosomes were stained green with LysoTracker. Nuclear accumulation could be detected as early as 15 minutes after treatment of cells with Dox, while co-localization of Dox with LysoTracker was apparent in pDox treated cells 15 minutes and 1 hour after treatment. […] The cells were sensitive to pDox, but resistant to treatment with free Dox. FIG. 2D depicts fluorescence images of subcellular organelles. Nuclei were stained in blue DAPI and lysosomes were stained in green with LysoTracker. Images of Dox, nuclei and lysosomes were merged to show subcellular localization of Dox at different time points.
Many breast cancer patients are resistant to chemotherapy due to drug efflux. About 25-50% of previously untreated breast cancers express the MDR1 gene encoding p-glycoprotein, one of the drug efflux pump proteins^17. Overexpression of MDR1 has also been attributed to acquired resistance to anthracyclines and cross-resistance to other chemotherapy drugs in the clinic^15. […]

MDA-MB-231 cells = experiment: Intracellular trafficking of Dox and pDox; assay type: cell-based, human; details: fluorescence microscopy
Protocol: as §2, with “Images of Dox, nuclei and lysosomes were merged to show subcellular localization of Dox at different time points.” left out
Applicants conducted studies to compare cellular uptake and subcellular trafficking of free Dox and pDox nanoparticles in MDA-MB-231 cells. […] However, no nuclear accumulation was detected in the pDox-treated cells at the same time (FIG. 2A and FIG. 2D). The red fluorescence from pDox could be co-localized with the green LysoTracker-positive subcellular organelles beginning at 15 minutes, and reached a high level one hour after pDox treatment (FIG. 2A and FIG. 2D), indicating pDox entered tumor cells via vesicular transport. […]

[5] = Tissue distribution of Dox by HPLC in MDA-MB-231 lung metastasis mice
Protocol: They were sacrificed 1 hour, 1 day, or 7 days later. Dox concentration in major organs was analyzed by HPLC.
Quantitation of doxorubicin was performed using Daunorubicin (Dau, Sigma) as an internal standard^49. Briefly, tissues were homogenized in PBS (100 mg tissue/330 μL PBS), and then mixed with 10 μL Dau (50 μg/mL). A 4-fold volume of the extraction solution containing chloroform and methanol (3/1, v/v) was subsequently added. The mixture was vortexed for 1 minute, and centrifuged at 13,000 rpm for 10 minutes to separate the aqueous and organic phases. The organic phase was collected, and the solvent was evaporated at 25° C. under a flow of nitrogen. The extract was dissolved in 100 μL methanol, and a 10 μL aliquot was used for HPLC analysis.

SMILES: COc1cccc2c1C(=O)c1c(O)c3c(c(O)c1C2=O)C[C@@](O)(C(=O)CO)C[C@@H]3O[C@H]1C[C@H](N)[C@H](O)[C@H](C)O1 [Dox, doxorubicin]
- lung tumor nodules / metastasis (4T1 lung metastasis [1]): multiple, large tumor nodules in the lung
- heart histology (H&E) ([2]; 6 mg/kg biweekly): deformation of myocardial fibers
- body weight change ([2]; Dox 3 mg/kg weekly, Doxil, porous silicon/pDox 6 mg/kg biweekly): initial drop in body weight but recovered shortly
- extension of median survival over control groups ([3]; pDox 6 mg/kg biweekly): 2 weeks
- Median survival ([3]; Doxil, pDox, MSV/pDox 6 mg/kg biweekly, tail vein): 98.5 days
- extension of median survival over the PBS control (4T1 lung metastasis [4]; 6 mg/kg weekly for 4 weeks): 13 days
- Median survival after tumor inoculation (4T1 lung metastasis [4]; 6 mg/kg weekly for 4 weeks after surgical removal of primary tumor): 62 days
- sensitivity of MDR1-expressing cells to treatment (MDA-MB-231/MDR cells): resistant
- time of nuclear accumulation after addition of drug (MDA-MB-231 cells): 15 min
- Dox concentration in the heart ([5]; 6 mg/kg i.v., one hour after dosing): over 10 μg/g organ
- plasma Dox ([5]; 1 hour post-dosing): barely detectable
